Data as given in PMC12766724, “Synthesis, Anthelmintic Activity, and Mechanism of Action of 5‑Aryl‑1H‑indoles” (Journal of Agricultural and Food Chemistry, 2025).
One block for each compound: values may come before it.

Columns and labels:
[1] = system: C. elegans wild-type N2; assay: Microscopic scoring (score 1-5) of worm populations prior to the Chitinase assay, L1 exposed 4 days; format: in vivo, Caenorhabditis elegans; details: 50 μM; score 1 (dead/arrested L1) to 5 (healthy)
Source text: Dead or mostly immobile worms, arrested at the L1 stage, received a score of 1. Populations with severely delayed development were scored as 2. More developmentally advanced, but still obviously delayed worms were given the score of 3. Adult worms that produce a noticeably lower number of progeny received a score of 4. Healthy worms that reproduce normally (i.e., hundreds of eggs and larvae are present) were scored as 5 (see Figure C for representative images). In a typical, correctly prepared experiment, vehicle-treated populations should receive a score of 5, while worms treated with ivermectin (positive control) should receive a score of 1.
(§1) After exposing L1 larvae to the compounds for 4 days, we observed the populations under a microscope and measured the Chitinase activity. The larvae produce the enzyme while hatching, and its activity is indicative of the reproductive capacity of the worms. Populations that fail to reproduce due to acute or reproductive toxicity or developmental abnormalities are detected.

[2] = system: C. elegans N2 wild-type; assay: Chitinase assay (reproductive capacity); format: in vivo, Caenorhabditis elegans; details: Caenorhabditis elegans
Description: (§2) The effect of compounds on C. elegans was evaluated using the Chitinase assay as we described previously.
as §1

[3] = system: C. elegans CB211 lev-1(e211) IV.; assay: Chitinase assay (reproductive capacity); format: in vivo; details: Caenorhabditis elegans; levamisole-resistant strain
Description: (§3) C. elegans strains used in this study were N2 (wild-type), levamisole-resistant strains ZZ15 (lev-8(x15) X) and […] (lev-1(e211) IV), ivermectin-resistant strain DA1316 (avr-14(ad1305) I; avr-15(vu227) glc-1(pk54) V), mebendazole-resistant strain […] (ben-1(e1880) III), and three strains with mutations in succinate dehydrogenase, RP2699, RP2700, and RP2702. The worms were cultivated on Nematode Growth Medium agar plates seeded with Escherichia coli OP50 in 20 °C according to the standard cultivation protocols. Strains RP2699, RP2700, and RP2702 were generated by Prof. Peter Roy’s group. All other strains and bacteria were purchased from the Caenorhabditis Genetics Center (CGC, Minneapolis, MN).
as §2
(§4) Lastly, strain DA1316 has mutations in three genes encoding subunits of the glutamate-gated chloride channel and is highly resistant to avermectins.

[4] = system: C. elegans CB3474 ben-1(e1880) III.; assay: Chitinase assay (reproductive capacity); format: in vivo; details: Caenorhabditis elegans; mebendazole-resistant strain
Description: as §3, §2, §4

[5] = system: C. elegans DA1316 avr-14(ad1305) I; avr-15(vu227) glc-1(pk54) V.; assay: Chitinase assay (reproductive capacity); format: in vivo; details: Caenorhabditis elegans; ivermectin-resistant strain
Description: as §3, §2, §4

[6] = system: C. elegans ZZ15 lev-8(x15) X.; assay: Chitinase assay (reproductive capacity); format: in vivo; details: Caenorhabditis elegans; levamisole-resistant strain
Description: as §3, §2, §4

[7] = system: age unsynchronized Ditylenchus destructor; assay: Motility on WMicrotracker ONE; format: in vivo
Description: Populations of D. destructor, kindly provided by Central Institute for Supervising and Testing in Agriculture, the Ministry of Agriculture of the Czech Republic, were maintained according to the protocol previously described here.
(§5) The effect of compounds on motility of H. contortus, D. destructor, and H. schachtii was evaluated using the WMicrotracker ONE platform according to previously published protocols. ,
(§6) The instrument evaluates the activity of small animals by counting how many times infrared light microbeams passing through the wells of a microtiter plate are interrupted. In age-unsynchronized populations of D. destructor, we observed reduced motility of worm populations treated with the halogenated derivatives i-19, i-20, and i-21 (Figures A, S2.1A, S2.2A and Table S2.1). […] The decreases in mean activity counts after 72 h of treatment at 100 μM were 85% and 97%, respectively.

[8] = system: Heterodera schachtii second-stage juveniles (J2); assay: Motility on WMicrotracker ONE; format: in vivo
Description: H. schachtii was maintained on mustard (Sinapsis alba cv. Albatros) roots grown in vitro on modified KNOP medium according to the previously published protocols. ,
as §5, §6

[9] = system: Arabidopsis thaliana Col-0; assay: Germination rate and phytotoxicity; format: in vivo; details: for average fraction of germinated seeds: 5 DPS; for main root length / plant weight: 10 DPS
Description: Wild-type A. thaliana (Col-0 ecotype) seeds were sterilized with 70% EtOH with 0.1% Tween-20 solution (2 × 1 mL) for 10 min, rinsed with 96% EtOH (1 × 1 mL) for 10 min, and kept in the fridge (4 °C in the dark). Seeds were sown on a sterile 1/2 MS medium supplemented with 0.3% DMSO as a mock and test compounds at 5, 10, 50, and 100 μM concentrations in 0.3% DMSO. Plates were kept in long-day light conditions (22 °C/20 °C, 16 h light/8 h dark, 100 μmol m^–2 s^–1). After 5 days, the germination rate was evaluated. After an additional 5 days, primary root growth was measured with ImageJ software (https://imagej.nih.gov/ij/), and seedlings were weighted.

[10] = system: Skin fibroblasts (BJ); assay: Resazurin assay, 3-day treatment; format: cell-based, human; details: BJ
Description: Skin fibroblasts (BJ) were obtained from the American Type Culture Collection (ATCC, Manassas, VA), while human keratinocytes (HaCaT) were sourced from the German Cancer Research Center in Heidelberg, Germany. Cells were cultured in a standard DMEM medium from Sigma-Aldrich, supplemented with 10% fetal bovine serum, 2 mM glutamine, 100 U/mL penicillin, and 100 μg/mL streptomycin. Cultures were maintained under standard conditions (37 °C, 5% CO2, humidified atmosphere) and subcultured two to three times per week. We assessed the effect of 3-day compound treatments on cell viability using a resazurin reduction assay measuring mitochondrial activity. Approximately 5,000 cells in 80 μL of culture medium were seeded into the wells of a 96-well plate. Twenty-four hours later, 20 μL of 5-fold concentrated test compound solutions was added and tested across three concentrations prepared through 2-fold serial dilutions. The highest final concentration was 40 μM. After 72 h, we added an 11-fold concentrated resazurin solution to the wells, achieving a final concentration of 0.0125 μM. Fluorescence (ex = 570 nm, em = 610 nm) was measured after 3 h of incubation. […]

[11] = system: human keratinocytes (HaCaT); assay: Resazurin assay, 3-day treatment; format: cell-based
Description: Skin fibroblasts (BJ) were obtained from the American Type Culture Collection (ATCC, Manassas, VA), while human keratinocytes (HaCaT) were sourced from the German Cancer Research Center in Heidelberg, Germany. Cells were cultured in a standard DMEM medium from Sigma-Aldrich, supplemented with 10% fetal bovine serum, 2 mM glutamine, 100 U/mL penicillin, and 100 μg/mL streptomycin. Cultures were maintained under standard conditions (37 °C, 5% CO2, humidified atmosphere) and subcultured two to three times per week. We assessed the effect of 3-day compound treatments on cell viability using a resazurin reduction assay measuring mitochondrial activity. Approximately 5,000 cells in 80 μL of culture medium were seeded into the wells of a 96-well plate. Twenty-four hours later, 20 μL of 5-fold concentrated test compound solutions was added and tested across three concentrations prepared through 2-fold serial dilutions. The highest final concentration was 40 μM. After 72 h, we added an 11-fold concentrated resazurin solution to the wells, achieving a final concentration of 0.0125 μM. Fluorescence (ex = 570 nm, em = 610 nm) was measured after 3 h of incubation.
The disubstituted derivatives i-25 and i-27 were the most toxic in the set, causing around a 50% decrease in viability of HaCaT cells at 40 μM.

[12] = 10 µM group, initial (prior to the treatment)
[13] = 50 µM group, initial (prior to the treatment)
[14] = 100 µM group, initial (prior to the treatment)

Compound: CCOc1ccccc1-c1ccc2[nH]ccc2c1 [i-8]
average score [1]: 2.5

Compound: CCOc1ccc(-c2ccc3[nH]ccc3c2)cc1 [i-10]
average score [1]: 1.8

Compound: CCCOc1ccccc1-c1ccc2[nH]ccc2c1 [i-11]
average score [1]: 1.5

IC50 [2]: 9.74 ± 1.65 µM
IC50 [3]: 9.36 ± 0.43 µM
IC50 [4]: 7.79 ± 0.36 µM
IC50 [5]: 9.93 ± 0.68 µM
IC50 [6]: 8.72 ± 0.13 µM
Compound: CCOc1cc(-c2ccc3[nH]ccc3c2)ccc1Cl [i-25]
average activity counts [7, 12]: 234
average activity counts ([7]; 10 µM, 48 h): 221
average activity counts ([7]; 10 µM, 72 h): 194
average activity counts [7, 13]: 246
average activity counts ([7]; 50 µM, 48 h): 209
average activity counts ([7]; 50 µM, 72 h): 197
average activity counts [7, 14]: 230
average activity counts ([7]; 100 µM, 48 h): 210
average activity counts ([7]; 100 µM, 72 h): 203
average activity counts [8, 12]: 174
average activity counts ([8]; 10 µM, 48 h): 160
average activity counts ([8]; 10 µM, 72 h): 171
average activity counts [8, 13]: 178
average activity counts ([8]; 50 µM, 48 h): 184
average activity counts ([8]; 50 µM, 72 h): 170
average activity counts [8, 14]: 172
average activity counts ([8]; 100 µM, 48 h): 195
average activity counts ([8]; 100 µM, 72 h): 190
average fraction of germinated seeds ([9]; 5 µM): 0.98
main root length ([9]; 5 µM): 38.29 mm
plant weight ([9]; 5 µM): 30.25 mg
average fraction of germinated seeds ([9]; 10 µM): 0.95
main root length ([9]; 10 µM): 38.15 mm
plant weight ([9]; 10 µM): 31.97 mg
average fraction of germinated seeds ([9]; 50 µM): 0.96
main root length ([9]; 50 µM): 34.25 mm
plant weight ([9]; 50 µM): 27.79 mg
Average viability (signal intensity relative to control) ([10]; 10 µM): 0.92 ± 0.01
Average viability (signal intensity relative to control) ([10]; 20 µM): 0.9 ± 0.05
Average viability (signal intensity relative to control) ([10]; 40 µM): 0.74 ± 0.06
Average viability (signal intensity relative to control) ([11]; 10 µM): 0.93 ± 0.02
Average viability (signal intensity relative to control) ([11]; 20 µM): 0.88 ± 0.06
Average viability (signal intensity relative to control) ([11]; 40 µM): 0.53 ± 0.1
decrease in viability ([11]; 40 µM): ~50%

IC50 [2]: 9.75 ± 1.65 µM
IC50 [3]: 9.85 ± 0.33 µM
IC50 [4]: 7.48 ± 0.06 µM
IC50 [5]: 10.79 ± 0.08 µM
IC50 [6]: 8.83 ± 0.47 µM
Compound: CC(C)Oc1cc(-c2ccc3[nH]ccc3c2)ccc1Cl [i-27]
average activity counts [7, 12]: 242
average activity counts ([7]; 10 µM, 48 h): 235
average activity counts ([7]; 10 µM, 72 h): 211
average activity counts [7, 13]: 248
average activity counts ([7]; 50 µM, 48 h): 227
average activity counts ([7]; 50 µM, 72 h): 223
average activity counts [7, 14]: 213
average activity counts ([7]; 100 µM, 48 h): 207
average activity counts ([7]; 100 µM, 72 h): 202
average activity counts [8, 12]: 169
average activity counts ([8]; 10 µM, 48 h): 161
average activity counts ([8]; 10 µM, 72 h): 167
average activity counts [8, 13]: 189
average activity counts ([8]; 50 µM, 48 h): 124
average activity counts ([8]; 50 µM, 72 h): 113
average activity counts [8, 14]: 169
average activity counts ([8]; 100 µM, 48 h): 161
average activity counts ([8]; 100 µM, 72 h): 111
average fraction of germinated seeds ([9]; 5 µM): 0.94
main root length ([9]; 5 µM): 39.90 mm
plant weight ([9]; 5 µM): 33.97 mg
average fraction of germinated seeds ([9]; 10 µM): 0.98
main root length ([9]; 10 µM): 40.35 mm
plant weight ([9]; 10 µM): 35.66 mg
average fraction of germinated seeds ([9]; 50 µM): 0.95
main root length ([9]; 50 µM): 37.27 mm
plant weight ([9]; 50 µM): 30.34 mg
Average viability (signal intensity relative to control) ([10]; 10 µM): 0.92 ± 0.02
Average viability (signal intensity relative to control) ([10]; 20 µM): 0.92 ± 0.03
Average viability (signal intensity relative to control) ([10]; 40 µM): 0.89 ± 0.03
Average viability (signal intensity relative to control) ([11]; 10 µM): 0.78 ± 0.12
Average viability (signal intensity relative to control) ([11]; 20 µM): 0.6 ± 0.19
Average viability (signal intensity relative to control) ([11]; 40 µM): 0.48 ± 0.21
decrease in viability ([11]; 40 µM): ~50%
